8 compounds from patent US20230416287A1, “Chemical Compounds” (GLAXOSMITHKLINE INTELLECTUAL PROPERTY DEVELOPMENT LIMITED, priority 2022, published 2023) can be followed below.

The target of one data set is human Nav1.8 (Homo sapiens, UniProt Q9Y5Y9). Briefly: Nav1.8 inhibitory activity, QPatch 48 HTX electrophysiology in HEK293-Nav1.8 cells. Type of data set: cell-based. The arrangement: expressed in transfected cells; host or cells: HEK293. Conditions: half inactivation state voltage protocol (V1/2), HEK293 cells expressing human Nav1.8, read-out: [Nav1.8] pIC50 (converted). On the procedure:
Biological Assay 1: Nav1.8 Inhibitory Activity Human embryonic kidney 293 cells (HEK293) expressing human Nav1.8, human Navol and human TREK1 (HEK293-Nav1.8) were grown in T150 cell culture flasks at 37° C., 5% CO2 incubator. HEK293-Nav1.8 were passaged every 2-3 days when confluency reached 80-90% in T150 cell culture flasks.
Pharmacological assessment of compounds of the invention was performed using the QPatch 48 HTX electrophysiological platform. HEK293-Nav1.8 cells were prepared on the day of use by removing culture media, washing in DPBS, adding Accutase (2 mL to cover the surface, aspirate 1 mL then 1-2 minutes at 37° C.) followed by addition of CHO-SFM II to stop the enzyme digestion and in order to obtain a suspension of 3×10^6 cell/mL.
Compounds of the invention were prepared in an extracellular solution of the following composition: NaCl (145 mM), KCl (4 mM), CaCl2) (2 mM), MgCl (2 mM), HEPES (1 mM), Glucose (10 mM), pH 7.4 with NaOH Osmolality 300 mOsM/L. An intracellular solution of the following composition was used: CsF (115 mM), CsCl (20 mm), NaCl (5 mM), EGTA (10 mM), HEPES (10 mM), Sucrose (20 mM), pH 7.2 with CsOH Osmolality 310 mOsm/L.
Utilizing the voltage-clamp mode in the QPatch 48 HTX system a half inactivation state voltage protocol (V1/2) was used to determine pharmacological activity of compounds of the invention at Nav1.8 ion channels. A V1/2 protocol was utilized with the following voltage steps: a holding voltage of −100 mV was established followed by a 20 ms voltage step to 0 mV (P1), followed by an inactivating voltage step at −46 mV for 8 seconds, followed by a step to −100 mV for 20 ms, before a 20 ms step to 0 mV (P2), then returned to the holding voltage of −100 mV. This voltage protocol was repeated at a frequency of every 15 seconds, the current magnitude was quantified at the P2 step throughout the recording. Inhibition of the measured current amplitude with compounds of the invention was analyzed by fitting a 4-6 points dose-response curve allowing determination of the fifty percent inhibition concentration (IC50). P2 currents were normalized according to measurements made at baseline (Baseline, vehicle only), after compound (Input, at each test concentration), and after positive reference compound (FullResponse, to achieve complete block), fit to the following equation: […]
To assess current run-down over the course of the experiment vehicle-only wells were utilized and the normalized current with vehicle-only (n. IVEH) was determined. To correct the compound response for run-down, the currents were corrected according to the following formula:
[formula] • Compound inhibition was fitted to the following Hill Equation to estimate the half maximal inhibition concentration (IC50)
[formula] • where Y is the normalized run-down corrected inhibition relative to the vehicle control (equivalent to n. IRD_Correct), C the test compound concentration, IC50 the concentration of test compound to inhibit the sodium current by 50%, and h the Hill coefficient.

The next data set is described as follows: CAD kinetic solubility. It counts as physicochemical. Conditions: phosphate buffered saline (PBS), aqueous buffer, PBS pH 7.4, 1 hour equilibration at room temperature, from DMSO stock, HPLC-CAD. On the procedure: Kinetic solubility was measured using Charged Aerosol Detector (CAD). The aqueous kinetic solubility at pH 7.4 was determined by measuring the concentration of solute in solution after precipitation from DMSO stock solution. The DMSO stock solution was diluted 20-fold with phosphate buffered saline (PBS) pH 7.4 and the solubility of the compound was measured after 1 hour equilibration at room temperature by HPLC-CAD.

Data set [1] in a line: Rat IV/PO pharmacokinetic study. It counts as in vivo, Han Wistar rats. As to the method:
An in vivo rat pharmacokinetic study was conducted to determine whether prodrug compounds of the invention are converted to the respective parent compound upon administration. The rat pharmacokinetic study was conducted with a crossover design on two study days with a one-day recovery period between each study day. Three male, dual catheterized (femoral vein and carotid artery) Han Wistar rats were used for the study. Each rat was also implanted with a gastric catheter for oral dose administration. Rats were dosed at 1 mg/kg by a 60-minute intravenous (IV) infusion (femoral vein cannula), then subsequently oral dosed at 2 mg/kg via the gastric cannula, with 48 hours between dosing sessions. Dose solutions of the compound of Example 4 were prepared in 20% Cavitron/5% DMSO/75% water (IV) and in 6% Cavitron/5% DMSO/89% water (PO) without pH adjustment. The dose solutions were filtered using a 0.22 μm filter. The pH of the final dosing solutions was 6.0.
During the intravenous study leg, blood samples were collected from the carotid artery catheter at target times of 15, 30, 60 (end of infusion), 65, 75, 90, 120, 240, 360, 480, 720, and 1440 minutes following the initiation of the intravenous infusion of the compound of Example 4. During the oral study leg, blood samples were collected prior to dosing and at target times of 15, 30, 60, 90, 120, 180, 240, 360, 480, 720, and 1440 minutes following oral administration. Blood samples (100 μL) were mixed with 100 μL phosphatase inhibitor, a 50 μL aliquot of the blood and inhibitor mixture was transferred to a non-heparinized tube and stored at approximately −80° C. until analyzed. The concentrations in the filtered dose solutions were confirmed by preparing stepwise dilutions first into 50% aqueous acetonitrile with 0.10% formic acid then into heparinized male Wistar Han blood: inhibitor to achieve determined nominal concentrations. Triplicate 50 μL aliquots were removed and were frozen and stored at approximately […] until analyzed by LC-MS/MS as described below. LC-MS/MS was used to quantify the compound of Example 4 and the corresponding parent compound of Example 4A in the biological samples generated in the above described in vivo study.
Samples were prepared by protein precipitation followed by LC-MS/MS analysis employing positive-mode ionization against a set of calibration standards for the compounds prepared in the same matrix. Pharmacokinetic parameters for the study were derived from the concentration versus time profiles. Key pharmacokinetic parameters such as AUC0-∞. (extrapolated area under the blood concentration-time curve), AUC0-t (area under the blood concentration-time curve to the last time point with quantifiable drug), Cmax (maximum concentration), Tmax (time Cmax is achieved), CL (systemic blood clearance), Vdss (steady-state volume of distribution), MRT (mean residence time), and t1/2 (half-life) were determined for the compound of Example 4. The key pharmacokinetic parameters such as AUC0-∞, AUC0-t, Cmax, Tmax, MRT, and t1/2 (half-life) were determined for the parent compound Example 4A. Descriptive statistical data of pharmacokinetic parameters were calculated, including the mean and standard deviation (SD) using Microsoft Excel. The data are shown below in Tables 5A and 5B. Data are reported as mean±SD (N=3).

Setting [2] is: male, Han Wistar, prodrug Example 4 in blood, intravenous infusion of Example 4, 1 mg/kg, mean ± SD, N=3.
Where [3] appears, read: male, Han Wistar, prodrug Example 4 in blood, intravenous infusion, 1 mg/kg, mean ± SD, N=3.

≈ marks a conversion by molar mass, not a printed value. Where only a bound is given, the exact number is not on record here.

Sequence of human Nav1.8 (Q9Y5Y9 whole entry): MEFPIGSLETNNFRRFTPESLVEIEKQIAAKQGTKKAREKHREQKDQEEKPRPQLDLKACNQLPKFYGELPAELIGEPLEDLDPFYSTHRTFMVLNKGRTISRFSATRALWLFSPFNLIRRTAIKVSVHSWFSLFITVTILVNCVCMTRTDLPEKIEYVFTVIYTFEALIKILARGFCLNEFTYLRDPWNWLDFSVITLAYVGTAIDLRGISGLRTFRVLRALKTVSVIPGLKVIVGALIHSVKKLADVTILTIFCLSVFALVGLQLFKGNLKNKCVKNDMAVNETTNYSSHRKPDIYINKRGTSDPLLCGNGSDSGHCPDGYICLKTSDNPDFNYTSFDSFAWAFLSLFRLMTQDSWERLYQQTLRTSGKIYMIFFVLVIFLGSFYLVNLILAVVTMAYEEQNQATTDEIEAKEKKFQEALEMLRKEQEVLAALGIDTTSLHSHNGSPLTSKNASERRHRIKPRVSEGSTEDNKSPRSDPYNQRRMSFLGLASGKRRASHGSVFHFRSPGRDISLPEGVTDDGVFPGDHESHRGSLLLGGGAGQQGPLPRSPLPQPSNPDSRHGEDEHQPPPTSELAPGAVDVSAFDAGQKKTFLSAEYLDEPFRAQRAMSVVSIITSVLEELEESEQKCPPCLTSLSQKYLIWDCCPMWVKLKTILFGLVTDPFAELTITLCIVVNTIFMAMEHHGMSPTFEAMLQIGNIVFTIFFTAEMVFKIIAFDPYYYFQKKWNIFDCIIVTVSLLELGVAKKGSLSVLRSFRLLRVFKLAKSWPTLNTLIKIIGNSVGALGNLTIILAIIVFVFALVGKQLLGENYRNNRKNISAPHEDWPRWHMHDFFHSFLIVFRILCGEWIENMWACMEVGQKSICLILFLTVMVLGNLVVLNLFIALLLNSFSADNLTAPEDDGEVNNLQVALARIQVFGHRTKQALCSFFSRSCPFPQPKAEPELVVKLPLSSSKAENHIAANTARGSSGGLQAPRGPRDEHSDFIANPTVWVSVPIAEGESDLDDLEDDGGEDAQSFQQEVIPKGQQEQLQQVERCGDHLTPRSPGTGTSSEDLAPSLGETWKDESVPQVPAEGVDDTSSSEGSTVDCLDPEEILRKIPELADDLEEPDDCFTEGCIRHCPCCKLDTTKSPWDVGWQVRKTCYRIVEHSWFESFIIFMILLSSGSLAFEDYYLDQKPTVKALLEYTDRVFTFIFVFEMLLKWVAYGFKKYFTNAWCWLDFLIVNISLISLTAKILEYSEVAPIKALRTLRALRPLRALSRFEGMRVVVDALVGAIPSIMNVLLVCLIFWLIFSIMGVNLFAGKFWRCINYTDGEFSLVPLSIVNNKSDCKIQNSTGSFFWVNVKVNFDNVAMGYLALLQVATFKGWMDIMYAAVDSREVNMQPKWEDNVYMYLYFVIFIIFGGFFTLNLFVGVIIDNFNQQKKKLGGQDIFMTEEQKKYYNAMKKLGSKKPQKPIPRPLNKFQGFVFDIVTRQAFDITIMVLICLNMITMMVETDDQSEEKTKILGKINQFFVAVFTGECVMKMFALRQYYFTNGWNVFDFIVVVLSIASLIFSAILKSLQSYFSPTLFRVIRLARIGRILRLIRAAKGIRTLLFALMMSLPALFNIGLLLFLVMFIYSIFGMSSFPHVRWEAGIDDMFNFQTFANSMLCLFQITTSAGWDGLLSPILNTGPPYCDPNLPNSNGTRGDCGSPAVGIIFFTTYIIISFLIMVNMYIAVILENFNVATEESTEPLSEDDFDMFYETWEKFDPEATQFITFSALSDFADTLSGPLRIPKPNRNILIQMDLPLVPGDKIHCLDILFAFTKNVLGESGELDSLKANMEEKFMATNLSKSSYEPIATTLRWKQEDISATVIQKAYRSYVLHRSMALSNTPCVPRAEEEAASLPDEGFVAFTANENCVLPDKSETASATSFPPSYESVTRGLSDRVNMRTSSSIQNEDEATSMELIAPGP

Turning to `Cc1cc(F)ccc1N1CN(c2ccc(=O)n(COP(=O)(O)O)c2C)C(=O)c2cc(C(F)(F)F)c(F)cc21` [Example 1, (5-(7-fluoro-1-(4-fluoro-2-methylphenyl)-4-oxo-6-(trifluoromethyl)-1,4-dihydroquinazolin-3(2H)-yl)-6-methyl-2-oxopyridin-1(2H)-yl)methyl dihydrogen phosphate], at human Nav1.8, the IC50 was 31.6 nM. Besides, in “CAD kinetic solubility”, the solubility at 1 h is no less than 192 µg/mL.
The like results for `Cc1cc(F)ccc1N1CN(c2ccc(=O)[nH]c2C)C(=O)c2cc(C(F)(F)F)c(F)cc21` [Example 1A, 7-fluoro-1-(4-fluoro-2-methylphenyl)-3-(2-methyl-6-oxo-1,6-dihydropyridin-3-yl)-6-(trifluoromethyl)-2,3-dihydroquinazolin-4(1H)-one] were, in that order, 10 nM and 32 µg/mL (≈ 71.2 µM).
With `Cc1cc(OC(F)(F)F)ccc1N1CN(c2cc(C)c(=O)n(COP(=O)(O)O)c2C)C(=O)c2cc(C(F)(F)F)cnc21` [Example 2, (3,6-dimethyl-5-(1-(2-methyl-4-(trifluoromethoxy)phenyl)-4-oxo-6-(trifluoromethyl)-1,4-dihydropyrido[2,3-d]pyrimidin-3(2H)-yl)-2-oxopyridin-1(2H)-yl)methyl dihydrogen phosphate], the IC50 on human Nav1.8 was 501 nM. Besides, in the data set “CAD kinetic solubility”, the solubility at 1 h is no less than 217 µg/mL.
Take `Cc1cc(OC(F)(F)F)ccc1N1CN(c2cc(C)c(=O)[nH]c2C)C(=O)c2cc(C(F)(F)F)cnc21` [Example 2A, 3-(2,5-dimethyl-6-oxo-1,6-dihydropyridin-3-yl)-1-(2-methyl-4-(trifluoromethoxy)phenyl)-6-(trifluoromethyl)-2,3-dihydropyrido[2,3-d]pyrimidin-4(1H)-one]: the IC50 at human Nav1.8 was 20 nM. For the same compound, the solubility at 1 h in “CAD kinetic solubility” amounted to 56 µg/mL (≈ 109 µM).
As to `Cc1c(N2CN(c3ccc(=O)n(COP(=O)(O)O)c3C)C(=O)c3cc(C(F)(F)F)ncc32)ccc(F)c1F` [Example 3, (5-(1-(3,4-Difluoro-2-methylphenyl)-4-oxo-6-(trifluoromethyl)-1,4-dihydropyrido[3,4-d]pyrimidin-3(2H)-yl)-6-methyl-2-oxopyridin-1(2H)-yl)methyl dihydrogen phosphate], the IC50 at human Nav1.8 was 1260 nM. The solubility at 1 h in “CAD kinetic solubility” is 224 µg/mL.
Regarding `Cc1[nH]c(=O)ccc1N1CN(c2ccc(F)c(F)c2C)c2cnc(C(F)(F)F)cc2C1=O` [Example 3A, 1-(3,4-difluoro-2-methylphenyl)-3-(2-methyl-6-oxo-1,6-dihydropyridin-3-yl)-6-(trifluoromethyl)-2,3-dihydropyrido[3,4-d]pyrimidin-4(1H)-one], the IC50 at human Nav1.8 is 100 nM. Besides, the solubility at 1 h in “CAD kinetic solubility” is no less than 210 µg/mL.
With `Cc1c(N2CN(c3ccc(=O)n(COP(=O)(O)O)c3C)C(=O)c3cc(F)c(Cl)cc32)ccc(F)c1F` [Example 4, (5-(7-chloro-1-(3,4-difluoro-2-methylphenyl)-6-fluoro-4-oxo-1,4-dihydroquinazolin-3(2H)-yl)-6-methyl-2-oxopyridin-1(2H)-yl)methyl dihydrogen phosphate], the IC50 at human Nav1.8 is 31.6 nM. The Vd in data set [1] (male, Han Wistar, blood, prodrug Example 4, intravenous infusion, 1 mg/kg, mean ± SD, N=3, read-out: Vdss) came out at 0.687 ± 0.284 L/kg. The Cmax in data set [1] (male, Han Wistar, prodrug Example 4 in blood, 60-minute intravenous infusion of Example 4, 1 mg/kg (Table 5A: 1.2 ± 0.1 mg/kg), mean ± SD, N=3) was 238 ± 45 ng/mL. Further, in data set [1] (setting [2]), the MRT worked out at 6 ± 1.2 min and the half-life was 40.2 ± 17.4 min. Moreover, in data set [1] (setting [3]), the area under the curve AUC(0-inf) was found to be 197 ± 44 ng·h/mL and the AUC(0-t) amounted to 197 ± 284 ng·h/mL. In data set [1] (male, Han Wistar, systemic blood clearance of prodrug Example 4, intravenous infusion, 1 mg/kg, mean ± SD, N=3), the clearance was 110 ± 33 mL/min/kg. Further, the “quantifiable concentrations following oral administration” value in data set [1] (prodrug Example 4 in blood, oral via gastric cannula, 2 mg/kg (Table 5A: 3.0 ± 0.0 mg/kg)) is listed as “There were no”. Besides, the solubility at 1 h in “CAD kinetic solubility” came to 157 µg/mL.
Consider `Cc1cc(F)ccc1N1CN(c2ccc(=O)n(COP(=O)(O)O)c2C)C(=O)c2cc(F)c(Cl)cc21` [Example 5, (5-(7-Chloro-6-fluoro-1-(4-fluoro-2-methylphenyl)-4-oxo-1,4-dihydroquinazolin-3(2H)-yl)-6-methyl-2-oxopyridin-1(2H)-yl)methyl dihydrogen phosphate], for which the IC50 at human Nav1.8 is 63.1 nM. Further, the solubility at 1 h in “CAD kinetic solubility” came out at 135 µg/mL.
